Like-named read-outs stand apart in the source and are kept apart here.
Tests used:
TbNMT = molecular target: T1, TbNMT (Trypanosoma brucei brucei, UniProt Q388H8); experiment: biochemical; format: biochemical; settings: for LE TbNMT (ligand efficiency): calculated as 0.6 ln(IC50)/(heavy atom count); for IC50: mean of two or more determinations
T1 sequence (Q388H8 1-446): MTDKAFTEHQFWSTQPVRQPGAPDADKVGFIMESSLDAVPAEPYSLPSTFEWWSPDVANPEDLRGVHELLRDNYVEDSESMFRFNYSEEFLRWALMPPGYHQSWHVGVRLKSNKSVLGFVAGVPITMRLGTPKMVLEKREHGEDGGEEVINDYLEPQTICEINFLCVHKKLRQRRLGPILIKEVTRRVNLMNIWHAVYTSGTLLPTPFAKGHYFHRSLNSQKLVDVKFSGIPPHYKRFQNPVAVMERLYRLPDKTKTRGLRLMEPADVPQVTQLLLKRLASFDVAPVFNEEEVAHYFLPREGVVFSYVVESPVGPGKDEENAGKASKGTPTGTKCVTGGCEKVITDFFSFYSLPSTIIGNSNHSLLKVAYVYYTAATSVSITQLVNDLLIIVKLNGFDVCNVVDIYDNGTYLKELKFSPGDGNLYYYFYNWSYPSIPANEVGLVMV
Method: (§1) Parasite and NMT assays: These were carried out as described previously.[8–10]

hNMT = molecular target: T2, hNMT (Homo sapiens, UniProt P30419); experiment: human NMT enzyme inhibition assay; format: biochemical; settings: mean of two or more determinations
T2 sequence (P30419 1-496): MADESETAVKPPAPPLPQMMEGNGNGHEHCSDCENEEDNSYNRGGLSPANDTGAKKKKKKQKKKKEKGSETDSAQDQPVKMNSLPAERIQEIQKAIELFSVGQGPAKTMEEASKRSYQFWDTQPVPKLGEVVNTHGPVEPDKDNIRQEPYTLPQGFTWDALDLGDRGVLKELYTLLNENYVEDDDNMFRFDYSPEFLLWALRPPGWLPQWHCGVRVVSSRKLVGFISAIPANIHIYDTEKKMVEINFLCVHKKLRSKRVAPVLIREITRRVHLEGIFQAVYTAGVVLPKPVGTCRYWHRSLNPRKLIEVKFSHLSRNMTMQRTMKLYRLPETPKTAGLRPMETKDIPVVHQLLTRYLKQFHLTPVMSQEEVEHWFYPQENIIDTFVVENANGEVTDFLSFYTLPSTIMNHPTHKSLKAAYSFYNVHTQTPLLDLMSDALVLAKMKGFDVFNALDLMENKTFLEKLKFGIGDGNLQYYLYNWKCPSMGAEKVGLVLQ
Method: as §1

T. brucei = T. brucei parasite growth assay; format: cell-based, Trypanosoma brucei; settings: for EC50: Trypanosoma brucei, mean of two or more determinations; for Selectivity ratio: hNMT IC50/T. brucei cell assay EC50
Method: as §1

hMRC5 [1] = experiment: MRC5 cell assay; format: cell-based; settings: Homo sapiens, mean of two or more determinations
[2] = In vitro intrinsic clearance assay (CLint (m)); format: in vitro ADME; settings: female CD1 mouse liver microsomes, 0.5 μM compound
Method: […]; 0.5 mg (mL 50 mM potassium phosphate buffer)^−1, pH 7.4), and the reaction was started by the addition of excess NADPH (8 mg (mL 50 mM potassium phosphate buffer)^−1, pH 7.4). Immediately, at time zero, then at 3, 6, 9, 15 and 30 min, an aliquot (50 μL) of the incubation mixture was removed and mixed with acetonitrile (100 μL) to stop the reaction. Internal standard was added to all samples, the samples were centrifuged (10 min, 5 °C, 3270 g) to sediment precipitated protein and the plates then sealed prior to UPLC–MS/MS analysis using a Quattro Premier XE (Waters Corp., USA).
XLfit (IDBS, UK) was used to calculate the exponential decay and consequently the rate constant (k) from the ratio of peak area of test compound to internal standard at each time point. The rate of intrinsic clearance (CLint: [mL min^−1 (g liver)^−1]) of each test compound was then calculated using Equation (1), in which V [mL (mg protein)^−1] is the incubation volume per mg protein added, and microsomal protein yield is taken as 52.5 mg protein per gram of liver. Verapamil (0.5 μM) was used as a positive control to confirm acceptable assay performance.

[3] = In vitro plasma protein binding, equilibrium dialysis; format: in vitro ADME; settings: female CD1 mouse plasma, equilibrium dialysis 5 h; read-out: PPB (converted)
Method: In vitro plasma protein binding experiments: In brief, a 96-well equilibrium dialysis apparatus was used to determine the free fraction in plasma for each compound (HT Dialysis LLC, Gales Ferry, CT, USA). Membranes (12-14 kDa cutoff) were conditioned in deionised water for 60 min, followed by conditioning in 80:20 deionised water/EtOH for 20 min, and then rinsed in isotonic buffer before use. Female CD1 mouse plasma was removed from the freezer and allowed to thaw on the day of experiment. Thawed plasma was then centrifuged (Allegra […], Beckman Coulter, USA, 10 min, 5 °C, 3270 g), spiked with test compound (10 μg g^-1), and 150 μL aliquots (n=6 replicate determinations) loaded into the 96-well equilibrium dialysis plate. Dialysis versus isotonic buffer (150 μL) was carried out for 5 h in a temperature-controlled incubator at ∼37 °C (Barworld Scientific Ltd., UK) using an orbital microplate shaker at 125 rpm (Barworld Scientific). At the end of the incubation period, aliquots of plasma or buffer were transferred to micronic tubes (Micronic B.V., the Netherlands), and the composition in each tube was balanced with control fluid such that the volume of buffer to plasma was the same. […] All samples were analysed by UPLC-MS/MS on a Quattro Premier XE Mass Spectrometer (Waters Corp., USA). The unbound fraction was determined as the ratio of the peak area in buffer to that in plasma.

hMRC5 [4] = test system: hMRC5; design: method as in PMID 20360736; settings: previously published inhibitor; cited from earlier work

SMILES	LE TbNMT (ligand efficiency) (TbNMT)	IC50 (TbNMT; read-out: IC50 TbNMT) [µM]	IC50 (hNMT) [µM]	EC50 (T. brucei) [µM]	EC50 (hMRC5 [1]) [µM]	CLint (m) [2]	Selectivity ratio (T. brucei)	IC50 (TbNMT; IC50 TbNMT) [µM]	fraction unbound at 5 h, 10 μg g^−1 [3]	EC50 (hMRC5 [4]) [µM]
COc1cc(C2SCC(=O)N2Cc2ccccc2)ccc1O (stereo not drawn) [Compound 1, 3-Benzyl-2-(4-hydroxy-3-methoxyphenyl)thiazolidin-4-one]	0.29	22	28	> 50	> 50	–	–	–	–	–
Cc1cc(CN2C(=O)COc3c(CCCCC4CCNCC4)cccc32)no1 [Compound 39, 4-((5-Methylisoxazol-3-yl)methyl)-8-(4-(piperidin-4-yl)butyl)-2H-benzo[b][1,4]oxazin-3(4H)-one]	–	–	–	0.41	> 50	2.0 mL min^−1 (g liver)^−1	–	–	–	–
Cc1cc(CN2C(=O)COc3c(CCCCN4CCCN(C)CC4)cccc32)no1 [Compound 40, 4-(4-(4-((5-Methylisoxazol-3-yl)methyl)-3-oxo-3,4-dihydro-2H-benzo[b][1,4]oxazin-8-yl)butyl)homopiperazine-1-methyl]	>0.38	< 0.002	1	0.08	24	–	13	–	–	–
CCOC(=O)CN1C(=O)COc2ccccc21 [Compound 14, Ethyl 2-(3-oxo-2H-benzo[b][1,4]oxazin-4(3H)-yl)acetate]	0.42	–	> 100	> 50	> 50	–	–	12	–	–
Cc1cc(CN2C(=O)COc3c(CCCCC4CCN(C)CC4)cccc32)no1 [Compound 41, 4-((5-Methylisoxazol-3-yl)methyl)-8-(4-(1-methylpiperidin-4-yl)butyl)-2H-benzo[b][1,4]oxazin-3(4H)-one]	–	–	–	0.19	19	10 mL min^−1 (g liver)^−1	–	–	0.18	–
Cc1nn(C)c(C)c1NS(=O)(=O)c1c(Cl)cc(-c2ccnc(N3CCNCC3)c2)cc1Cl [DDD85646]	–	–	–	–	–	–	–	–	–	0.4
COc1cc(C2SCC(=O)N2Cc2ccco2)ccc1O (stereo not drawn) [Compound 2, 3-(Furan-2-ylmethyl)-2-(4-hydroxy-3-methoxyphenyl)thiazolidin-4-one]	0.33	7.6	> 100	> 50	–	–	–	–	–	–
Cc1cc(CN2C(=O)COc3cc(CCCOC[C@@H]4CCN(C)C4)ccc32)no1 [Compound 42, (R)-4-((5-Methylisoxazol-3-yl)methyl)-7-(3-((1-methylpyrrolidin-3-yl)methoxy)propyl)-2H-benzo[b][1,4]oxazin-3(4H)-one]	0.38	0.009	24	0.35	> 50	7.0 mL min^−1 (g liver)^−1	69	–	–	–
Cc1cc(CN2C(=O)COc3cc(CCCCC4CCN(C)CC4)ccc32)no1 [Compound 44, 4-((5-Methylisoxazol-3-yl)methyl)-7-(4-(1-methylpiperidin-4-yl)butyl)-2H-benzo[b][1,4]oxazin-3(4H)-one]	–	–	–	0.007	10	12 mL min^−1 (g liver)^−1	–	–	0.06	–
O=C1CSC(c2ccccn2)N1c1ccccc1Cl (stereo not drawn) [Compound 11, 3-(2-Chlorophenyl)-2-(pyridin-2-yl)thiazolidin-4-one]	0.32	32	> 100	> 50	–	–	–	–	–	–
Cc1cc(CN2C(=O)COc3cc(CCCOC4CCNCC4)ccc32)no1 [Compound 43, 4-((5-Methylisoxazol-3-yl)methyl)-7-(3-(piperidin-4-yloxy)propyl)-2H-benzo[b][1,4]oxazin-3(4H)-one]	–	–	–	0.15	22	–	–	–	–	–

Reference: article PMC4648043, “Development of Small-Molecule Trypanosoma brucei N-Myristoyltransferase Inhibitors: Discovery and Optimisation of a Novel Binding Mode” (Chemmedchem, 2015)
